{
  "source": "patent US6878722B2",
  "about": "“Substituted cycloalkyl P1′ hepatitis C virus inhibitors” (Bristol-Myers Squibb Company, priority 2002, dated 2005)",
  "key": {"[1]": {"target": "T1, HCV NS3/4A protease complex (BMS strain, genotype 1a) (Hepatitis C virus genotype 1a, UniProt P27958, C1454S)", "T1 construct": "DNA encoding the recombinant HCV NS3/4A protease complex (amino acids 1027 to 1711) for these strains; inferred from the pET21b vector and Ni-NTA purification; made in house; host or cells: Escherichia coli BL21 (DE3), pET21b", "T1 sequence (P27958 1658-1714, looked up, stated change not applied)": "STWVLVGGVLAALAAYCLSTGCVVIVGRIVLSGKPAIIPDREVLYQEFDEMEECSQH", "T1 sequence (P27958 1027-1657, looked up, stated change not applied)": "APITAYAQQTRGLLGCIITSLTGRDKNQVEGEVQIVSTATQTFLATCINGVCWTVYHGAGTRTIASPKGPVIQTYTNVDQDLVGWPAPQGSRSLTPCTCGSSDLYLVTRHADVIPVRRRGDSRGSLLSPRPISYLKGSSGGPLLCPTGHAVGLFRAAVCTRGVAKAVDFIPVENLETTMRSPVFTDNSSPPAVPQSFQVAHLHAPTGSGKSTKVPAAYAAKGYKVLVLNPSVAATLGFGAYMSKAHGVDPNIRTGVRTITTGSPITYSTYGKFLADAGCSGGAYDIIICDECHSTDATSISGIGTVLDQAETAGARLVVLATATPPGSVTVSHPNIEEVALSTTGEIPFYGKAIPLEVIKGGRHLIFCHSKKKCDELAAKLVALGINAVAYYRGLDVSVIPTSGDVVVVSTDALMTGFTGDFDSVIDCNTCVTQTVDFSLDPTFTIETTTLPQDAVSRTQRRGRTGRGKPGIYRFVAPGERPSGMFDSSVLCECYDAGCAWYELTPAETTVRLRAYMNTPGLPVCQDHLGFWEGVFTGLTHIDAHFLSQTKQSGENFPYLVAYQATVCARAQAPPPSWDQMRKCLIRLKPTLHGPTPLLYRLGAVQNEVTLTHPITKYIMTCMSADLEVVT", "assay": "Recombinant HCV NS3/4A protease complex FRET peptide assay, BMS strain", "format": "biochemical", "details": "IC50 range, NS3/4A BMS Strain", "in_short": "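Recombinant NS3/4A complex (aa 1027–1711) with C-terminal three-lysine tail, C1711G and C1454S, expressed in E. coli BL21(DE3) and purified by Ni-NTA then Superdex-S200. Inhibition of the complex from each strain measured in vitro by FRET peptide cleavage.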"}, "[2]": {"system": "HCV replicon in Huh7 cells", "assay": "HCV replicon cell-based assay (FRET)", "details": "Hepatitis C virus, Huh-7; HCV replicon; read-out: EC50 range", "in_short": "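Huh7 cells stably carrying a genotype 1b HCV replicon (IRES-neo-EMCV-IRES-NS3-NS5B) were treated with compound for 4 days at 37 °C in 0.5% DMSO final. Lysates containing 10 μM FRET peptide RET S1 were read kinetically at 340/490 nm to give NS3 protease activity, from which EC50 was derived.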"}},
  "note": "pEC50, pIC50: −log10 of the molar value.",
  "data": [
    {"smiles": "C=C[C@@H]1C[C@]1(NC(=O)[C@@H]1C[C@@H](Oc2cc(-c3ccccc3)nc3cc(OC)ccc23)CN1C(=O)[C@@H](NC(=O)OC(C)(C)C)C(C)(C)C)C(=O)NS(=O)(=O)C1(C(=C)C)CC1", "note": "[Compound 43, {1-[2-[1-(1-Isopropenyl-cyclopropanesulfonylaminocarbonyl)-2-vinyl-cyclopropylcarbamoyl]-4-(7-methoxy-2-phenyl-quinolin-4-yloxy)-pyrrolidine-1-carbonyl]-2,2-dimethyl-propyl}-carbamic acid tert-butyl ester]", "values": [
      {"measurement": "pIC50", "setting": "[1]", "value": "> 7.30"},
      {"measurement": "pEC50", "setting": "[2]", "value": "> 7.30"}
    ]},
    {"smiles": "C=C[C@@H]1C[C@]1(NC(=O)[C@@H]1C[C@@H](Oc2cc(C3CC3)nc3cc(OC)ccc23)CN1C(=O)[C@@H](NC(=O)OC(C)(C)C)C(C)(C)C)C(=O)NS(=O)(=O)C1(CC2CC2)CC1", "note": "[Compound 70, (1-{4-(2-Cyclopropyl-7-methoxy-quinolin-4-yloxy)-2-[1-(1-cyclopropylmethyl-cyclopropanesulfonylaminocarbonyl)-2-vinyl-cyclopropylcarbamoyl]-pyrrolidine-1-carbonyl}-2,2-dimethyl-propyl)-carbamic acid tert-butyl ester]", "values": [
      {"measurement": "pIC50", "setting": "[1]", "value": "> 7.30"},
      {"measurement": "pEC50", "setting": "[2]", "value": "> 7.30"}
    ]},
    {"smiles": "C=C[C@@H]1C[C@]1(NC(=O)[C@@H]1C[C@@H](Oc2cc(-c3ccccc3)nc3cc(OC)ccc23)CN1C(=O)[C@@H](NC(=O)CC1CC1)C(C)(C)C)C(=O)NS(=O)(=O)C1(Cc2ccccc2)CC1", "note": "[Compound 58, 1-[2-(2-Cyclopropyl-acetylamino)-3,3-dimethyl-butyryl]-4-(7-methoxy-2-phenyl-quinolin-4-yloxy)-pyrrolidine-2-carboxylic acid [1-(1-benzyl-cyclopropanesulfonylaminocarbonyl)-2-vinyl-cyclopropyl]-amide]", "values": [
      {"measurement": "pIC50", "setting": "[1]", "value": "> 7.30"},
      {"measurement": "pEC50", "setting": "[2]", "value": "6.30 to 7.30"}
    ]}
  ]
}
